This note sets out measurements from patent publication US11440923B2, “Substituted macrocyclic indole derivatives” (Bayer Aktiengesellschaft, priority 2017, dated 2022).

For one series, the target named is BCL-XL (Homo sapiens (Human), UniProt Q07817). In words: Protein-protein interaction assay BCL-XL/Bad BH3 peptide (BCL-XL assay, TR-FRET). It counts as binding. The note with it: read-out: BCL-XL Assay IC50 (median). The essentials:
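Human BCL-XL (aa 1-212, C-terminal His6, E. coli) at 1 nM end concentration, preincubated 10 min at 22 °C with compound (11 concentrations, 0.1 nM–20 μM, duplicates), then biotinylated Bad BH3 peptide (1 nM) added with anti-His-Eu cryptate/streptavidin-XL665. Incubation 1 h at 22 °C then overnight at 4 °C; TR-FRET 665/620 ratio, IC50 from 4-parameter fit.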

In series [1] the test system is SUDHL5 cells. Kind of series: Induction of cytotoxicity in SUDHL5 cells (Assay 6). The series is classed as cell-based. Summed up: (§1)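 Run alongside apoptosis measurements, this cytotoxicity readout used cells treated with compound for 5 h at 37 °C and quantified ATP-based luminescence with CellTiter-Glo.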
Series [2] deals with SUDHL5 cells. In words: Antiproliferation assay SUDHL5 (Assay 7). It counts as cell-based. The essentials: (§2)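 IC50 values reflect growth relative to a day 0 baseline (CI) and DMSO vehicle (C0). Viable cells were quantified by CellTiter-Glo luminescence after 72 h treatment at 37 °C.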
The next series relates to SUDHL10 cells. In words: Induction of cytotoxicity in SUDHL10 cells (Assay 6). The series is classed as cell-based. The essentials: as §1
In a further series the test system is HMC-1-8 cells. Kind of series: Antiproliferation assay HMC-1-8 (Assay 7). It counts as cell-based. The essentials: as §2
Setting [3] is: Homo sapiens, SU-DHL-5, 5 h, 5 h, CellTiter-Glo; read-out: Cytotox SUDHL5 IC50 (median).
Setting [4] is: Homo sapiens, SU-DHL-5, 72 h, 72 h, CellTiter-Glo; read-out: Antiproli SUDHL5 IC50 (median).
The mark [5] stands for this setting: Homo sapiens, SU-DHL10, 5 h, 5 h, CellTiter-Glo; read-out: Cytotox SUDHL10 IC50 (median).
[6] abbreviates: 5 h, CellTiter-Glo; read-out: Cytotox SUDHL5 IC50 (median).
The mark [7] stands for this setting: 72 h, CellTiter-Glo; read-out: Antiproli SUDHL5 IC50 (median).
The mark [8] stands for this setting: 5 h, CellTiter-Glo; read-out: Cytotox SUDHL10 IC50 (median).
Where [9] appears, read: 72 h, CellTiter-Glo; read-out: Antiproli HMC-1-8 IC50 median.
The mark [10] stands for this setting: read-out: Antiproli SUDHL5 IC50 (median); 72 h, CellTiter-Glo.

Where a name gives a salt, the structure may show the parent alone. Read-outs that look alike come from different tables or passages of the source.

Chain of BCL-XL (Q07817 1-212): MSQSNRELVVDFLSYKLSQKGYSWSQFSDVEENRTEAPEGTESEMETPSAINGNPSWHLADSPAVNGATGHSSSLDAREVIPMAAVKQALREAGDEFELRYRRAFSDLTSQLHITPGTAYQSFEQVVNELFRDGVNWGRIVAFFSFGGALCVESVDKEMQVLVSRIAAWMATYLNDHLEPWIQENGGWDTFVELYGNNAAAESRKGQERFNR

For `CCc1c2c(nn1C)C(C(F)(F)F)OCCCCn1c(C(=O)O)c(CCCOc3cccc4ccccc34)c3ccc(Cl)c-2c31` (racemic) [Example 27, (rac)-4-Chloro-3-ethyl-2-methyl-7-{3-[(naphthalen-1-yl)oxy]propyl}-15-(trifluoromethyl)-2,10,11,12,13,15-hexahydropyrazolo[4′,3′:9,10][1,6]oxazacycloundecino[8,7,6-hi]indole-8-carboxylic Acid], the IC50 at BCL-XL is over 20 µM; with SUDHL5 cells [1] (setting [3]), 1.9 µM; in the series with SUDHL5 cells [2] (setting [4]) it was 0.17 µM; in the series with SUDHL10 cells (setting [5]) it was 9.6 µM; in the series with HMC-1-8 cells (72 h, CellTiter-Glo, read-out: Antiproli HMC-1-8 IC50 median), 20.7 µM.
On to `CCc1c2c(nn1C)C(CCC1CCOCC1)OCCCCn1c(C(=O)O)c(CCCOc3cccc4cc(F)ccc34)c3ccc(Cl)c-2c31` (single isomer, unassigned; enantiomer 2) [Example 62, (−)-4-chloro-3-ethyl-7-{3-[(6-fluoronaphthalen-1-yl)oxy]propyl}-2-methyl-15-[2-(oxan-4-yl)ethyl]-2,10,11,12,13,15-hexahydropyrazolo[4′,3′:9,10][1,6]oxazacycloundecino[8,7,6-hi]indole-8-carboxylic Acid (Enantiomer 2)], for which the concentration for half-maximal inhibition (IC50) was over 20 µM on BCL-XL; 6.3 µM with SUDHL5 cells [1] (setting [6]); 5.3 µM in the series on SUDHL5 cells [2] (setting [7]); 7.8 µM in the series on SUDHL10 cells (setting [8]); 21.9 µM with HMC-1-8 cells (setting [9]).
With `CCc1c2c(nn1C)C(CCN1CCOCC1)OCCCCn1c(C(=O)O)c(CCCOc3cccc4cc(F)ccc34)c3ccc(F)c-2c31` (single isomer, unassigned; enantiomer 1) [Example 50, (+)-3-ethyl-4-fluoro-7-{3-[(6-fluoronaphthalen-1-yl)oxy]propyl}-2-methyl-15-[2-(morpholin-4-yl)ethyl]-2,10,11,12,13,15-hexahydropyrazolo[4′,3′:9,10][1,6]oxazacycloundecino[8,7,6-hi]indole-8-carboxylic Acid (Enantiomer 1)], the IC50 is over 20 µM on BCL-XL; 0.016 µM in the series with SUDHL5 cells [1] (setting [6]); 0.011 µM in the series with SUDHL5 cells [2] (setting [7]); 0.027 µM in the series on SUDHL10 cells (setting [8]); 0.392 µM with HMC-1-8 cells (setting [9]).
With `CCc1c2c(nn1C)C(CCN1CCOCC1)OCCCCn1c(C(=O)O)c(CCCOc3cccc4ccccc34)c3ccc(F)c-2c31` (single isomer, unassigned; enantiomer 2) [Example 12, 3-ethyl-4-fluoro-2-methyl-15-[2-(morpholin-4-yl)ethyl]-7-{3-[(naphthalen-1-yl)oxy]propyl}-2,10,11,12,13,15-hexahydropyrazolo[4′,3′:9,10][1,6]oxazacycloundecino[8,7,6-hi]indole-8-carboxylic Acid—N-ethylethanamine Salt (Enantiomer 2)], the IC50 at BCL-XL was over 20 µM; in the series on SUDHL5 cells [1] (setting [6]) it was 3.3 µM; with SUDHL5 cells [2] (setting [10]) it was 2.6 µM; in the series with SUDHL10 cells (setting [8]), 8.1 µM.
As for `Cc1c2c(nn1C)C(CCN1CCOCC1)OCCCCn1c(C(=O)O)c(CCCOc3cccc4ccccc34)c3ccc(F)c-2c31` (single isomer, unassigned; enantiomer 2) [Example 9, 4-fluoro-2,3-dimethyl-15-[2-(morpholin-4-yl)ethyl]-7-{3-[(naphthalen-1-yl)oxy]propyl}-2,10,11,12,13,15-hexahydropyrazolo[4′,3′:9,10][1,6]oxazacycloundecino[8,7,6-hi]indole-8-carboxylic Acid—N-ethylethanamine Salt (Enantiomer 2)], the half-inhibitory concentration (IC50) at BCL-XL was over 20 µM; with SUDHL5 cells [1] (setting [6]) it was 5.4 µM; in the series with SUDHL5 cells [2] (setting [10]), 4.3 µM; in the series on SUDHL10 cells (setting [8]) it was 16 µM.
On to `Cc1c2c(nn1C)C(C)OCCCCn1c(C(=O)O)c(CCCOc3cccc4ccccc34)c3cccc-2c31` (single isomer, unassigned; stereoisomer 2) [Example 3, 2,3,15-trimethyl-7-[3-(naphthalen-1-yloxy)propyl]-2,10,11,12,13,15-hexahydropyrazolo[4′,3′:9,10][1,6]oxazacycloundecino[8,7,6-hi]indole-8-carboxylic Acid Trifluoroacetic Acid Salt (Stereoisomer 2)], for which the IC50 on BCL-XL is over 20 µM; in the series on SUDHL5 cells [1] (read-out: Cytotox SUDHL5 IC50 (median); 5 h, CellTiter-Glo) it was over 33 µM; in the series with SUDHL5 cells [2] (setting [10]) it was 20 µM; with SUDHL10 cells (read-out: Cytotox SUDHL10 IC50 (median); 5 h, CellTiter-Glo) it was 26 µM.
As to `Cc1c2c(nn1C)C(C)OCCCCn1c(C(=O)O)c(CCCOc3cccc4ccccc34)c3cccc-2c31` (racemic) [Example 1, (rac)-2,3,15-trimethyl-7-[3-(naphthalen-1-yloxy)propyl]-2,10,11,12,13,15-hexahydropyrazolo[4′,3′:9,10][1,6]oxazacycloundecino[8,7,6-hi]indole-8-carboxylic Acid (Mixture of Stereoisomers)], the IC50 was over 20 µM at BCL-XL, 2.8 µM with SUDHL5 cells [1] (setting [3]), 1.5 µM in the series with SUDHL5 cells [2] (setting [4]) and 6.6 µM in the series with SUDHL10 cells (setting [5]).
As to `Cc1c2c(nn1C)C(CCN1CCOCC1)OCCCCn1c(C(=O)O)c(CCCOc3cccc4ccccc34)c3ccc(Cl)c-2c31` (racemic) [Example 13, (rac)-4-chloro-2,3-dimethyl-15-[2-(morpholin-4-yl)ethyl]-7-{3-[(naphthalen-1-yl)oxy]propyl}-2,10,11,12,13,15-hexahydropyrazolo[4′,3′:9,10][1,6]oxazacycloundecino[8,7,6-hi]indole-8-carboxylic Acid], the IC50 is over 20 µM on BCL-XL, 0.089 µM with SUDHL5 cells [1] (setting [3]), 0.11 µM in the series with SUDHL5 cells [2] (setting [4]) and 0.21 µM in the series with SUDHL10 cells (setting [5]).
Turning to `CCc1c2c(nn1C)C(CCN1CCC(F)(F)C1)OCCCCn1c(C(=O)O)c(CCCOc3cccc4cc(F)ccc34)c3ccc(Cl)c-2c31` (single isomer, unassigned; enantiomer 1) [Example 56, 4-chloro-15-[2-(3,3-difluoropyrrolidin-1-yl)ethyl]-3-ethyl-7-{3-[(6-fluoronaphthalen-1-yl)oxy]propyl}-2-methyl-2,10,11,12,13,15-hexahydropyrazolo[4′,3′:9,10][1,6]oxazacycloundecino[8,7,6-hi]indole-8-carboxylic Acid—N-ethylethanamine Salt (Enantiomer 1)], the IC50 at BCL-XL is over 20 µM; in the series on SUDHL5 cells [1] (setting [6]), 0.021 µM; in the series with SUDHL5 cells [2] (setting [10]), 0.087 µM; with SUDHL10 cells (setting [8]), 0.039 µM.
For the compound `Cc1c2c(nn1C)C(CCN1CCOCC1)OCCCCn1c(C(=O)O)c(CCCOc3cccc4ccccc34)c3ccc(Cl)c-2c31` (single isomer, unassigned; enantiomer 2) [Example 15, 4-chloro-2,3-dimethyl-15-[2-(morpholin-4-yl)ethyl]-7-{3-[(naphthalen-1-yl)oxy]propyl}-2,10,11,12,13,15-hexahydropyrazolo[4′,3′:9,10][1,6]oxazacycloundecino[8,7,6-hi]indole-8-carboxylic Acid (Enantiomer 2)], the IC50 was over 20 µM on BCL-XL, 2.5 µM in the series on SUDHL5 cells [1] (setting [6]), 2.5 µM in the series on SUDHL5 cells [2] (setting [7]) and 9.7 µM in the series with SUDHL10 cells (setting [8]).
Turning to `Cc1c2c(nn1C)C(CCN1CCOCC1)OCCCCn1c(C(=O)O)c(CCCOc3cccc4ccccc34)c3ccc(F)c-2c31` (racemic) [Example 7, (rac)-4-fluoro-2,3-dimethyl-15-[2-(morpholin-4-yl)ethyl]-7-[3-(naphthalen-1-yloxy)propyl]-2,10,11,12,13,15-hexahydropyrazolo[4′,3′:9,10][1,6]oxazacycloundecino[8,7,6-hi]indole-8-carboxylic Acid], the IC50 on BCL-XL was over 20 µM; in the series on SUDHL5 cells [1] (setting [3]), 0.24 µM; in the series with SUDHL5 cells [2] (setting [4]), 0.2 µM; with SUDHL10 cells (setting [5]) it was 0.38 µM.
For the compound `Cc1c2c(nn1C)C(CCN1CCOCC1)OCCCCn1c(C(=O)O)c(CCCOc3cccc4ccccc34)c3cccc-2c31` (single isomer, unassigned; stereoisomer 2) [Example 6, 2,3-dimethyl-15-[2-(morpholin-4-yl)ethyl]-7-[3-(naphthalen-1-yloxy)propyl]-2,10,11,12,13,15-hexahydropyrazolo[4′,3′:9,10][1,6]oxazacycloundecino[8,7,6-hi]indole-8-carboxylic Acid (Stereoisomer 2)], the half-maximal inhibitory concentration (IC50) is over 20 µM on BCL-XL, 22 µM with SUDHL5 cells [1] (setting [6]), 8.2 µM with SUDHL5 cells [2] (setting [7]) and 29 µM in the series on SUDHL10 cells (setting [8]).
Take `Cc1c2c(nn1C)C(CCN1CCOCC1)OCCCCn1c(C(=O)O)c(CCCOc3cccc4cc(F)ccc34)c3ccc(F)c-2c31` (racemic) [Example 19, (rac)-4-fluoro-7-{3-[(6-fluoronaphthalen-1-yl)oxy]propyl}-2,3-dimethyl-15-[2-(morpholin-4-yl)ethyl]-2,10,11,12,13,15-hexahydropyrazolo[4′,3′:9,10][1,6]oxazacycloundecino[8,7,6-hi]indole-8-carboxylic Acid]: the IC50 on BCL-XL was over 20 µM; in the series on SUDHL5 cells [1] (setting [3]) it was 0.082 µM; with SUDHL5 cells [2] (setting [4]), 0.077 µM; with SUDHL10 cells (setting [5]), 0.11 µM.

Broadly, the IC50 is the concentration that inhibits the measured activity by half.
